Results from ChEMBL document CHEMBL1136110, “2,3,4,5-tetrahydro- and 2,3,4,5,11,11a-hexahydro-1H-[1,4]diazepino[1,7-a]indoles: new templates for 5-HT(2C) agonists” (Bioorg Med Chem Lett, 2003).

Experiments:
[1] = biological target: 5-hydroxytryptamine receptor 2A (Homo sapiens, UniProt P28223); test: Binding affinity against 5-hydroxytryptamine 2A receptor using [125I]DOI radioligand.
[2] = biological target: T1, 5-hydroxytryptamine receptor 2C (Homo sapiens, UniProt P28335); test: Binding affinity against 5-hydroxytryptamine 2C receptor using [125I]DOI radioligand.
T1 sequence (P28335 whole entry): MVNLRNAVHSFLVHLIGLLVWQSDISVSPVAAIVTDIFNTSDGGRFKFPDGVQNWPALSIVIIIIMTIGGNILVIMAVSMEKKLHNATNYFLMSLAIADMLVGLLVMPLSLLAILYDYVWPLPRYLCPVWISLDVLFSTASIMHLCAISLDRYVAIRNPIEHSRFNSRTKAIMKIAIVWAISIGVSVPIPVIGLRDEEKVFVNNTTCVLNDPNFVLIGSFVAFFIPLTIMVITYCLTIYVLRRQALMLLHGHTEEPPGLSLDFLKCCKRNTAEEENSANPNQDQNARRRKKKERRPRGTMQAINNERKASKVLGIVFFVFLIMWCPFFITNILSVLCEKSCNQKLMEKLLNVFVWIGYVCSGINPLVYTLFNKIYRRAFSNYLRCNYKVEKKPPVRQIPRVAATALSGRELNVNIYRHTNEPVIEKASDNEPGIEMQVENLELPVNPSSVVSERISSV

[3] = biological target: T2, 5-hydroxytryptamine receptor 2C (Homo sapiens) (UniProt P28335); test: Intrinsic efficacy against 5-hydroxytryptamine 2C receptor
T2 sequence (whole entry): T1 sequence (P28335 whole entry)

[4] = biological target: T1, 5-hydroxytryptamine receptor 2C; test: Binding affinity of compound towards 5-hydroxytryptamine 2C receptor
[5] = biological target: Serotonin 2 receptors; 5-HT2a & 5-HT2c (Homo sapiens) (UniProt P28223+P28335); test: Selectivity ratio of binding affinity of 5-hydroxytryptamine 2A receptor to that of 5-hydroxytryptamine 2C receptor.; assay type: protein assay
[6] = test system: Mus musculus; test: Anxiolytic activity (latency to fight) in mice after administration (3.0 mg/kg) using shock-induced aggression assay; assay type: functional
[7] = test system: Mus musculus; test: Ataxia (time on rotaing rod) in mice after administration (3 mg/kg) using standard Rotarod assay; assay type: functional
[8] = test system: Mus musculus; test: Ataxia (time on rotaing rod) in mice after administration (0.3 mg/kg) using standard Rotarod assay; assay type: functional
[9] = test system: Mus musculus; test: Anxiolytic activity (latency to fight) in mice after administration (0.3 mg/kg) using shock-induced aggression assay; assay type: functional
[10] = test system: Mus musculus; test: Anxiolytic activity (latency to fight) in mice after administration (3 mg/kg) using shock-induced aggression assay; assay type: functional
[11] = test system: Mus musculus; test: Anxiolytic activity (latency to fight) in mice after administration (30 mg/kg) using shock-induced aggression assay; assay type: functional
[12] = test system: Mus musculus; test: Ataxia (time on rotaing rod) in mice after administration (30 mg/kg) using standard Rotarod assay; assay type: functional

Sequence of 5-hydroxytryptamine receptor 2A (P28223 whole entry): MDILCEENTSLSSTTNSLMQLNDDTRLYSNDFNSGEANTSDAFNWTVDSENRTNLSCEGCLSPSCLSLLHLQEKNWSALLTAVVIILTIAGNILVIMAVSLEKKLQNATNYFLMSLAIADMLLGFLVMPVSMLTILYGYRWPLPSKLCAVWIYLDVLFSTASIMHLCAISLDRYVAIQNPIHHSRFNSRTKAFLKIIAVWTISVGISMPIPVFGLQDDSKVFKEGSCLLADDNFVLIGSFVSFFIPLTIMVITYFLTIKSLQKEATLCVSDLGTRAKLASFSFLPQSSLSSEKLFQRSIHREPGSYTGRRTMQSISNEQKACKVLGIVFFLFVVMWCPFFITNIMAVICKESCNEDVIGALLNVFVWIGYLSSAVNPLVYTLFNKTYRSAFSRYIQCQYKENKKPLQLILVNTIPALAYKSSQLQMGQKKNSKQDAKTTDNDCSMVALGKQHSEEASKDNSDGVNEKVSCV
Sequence of Serotonin 2 receptors; 5-HT2a & 5-HT2c (Homo sapiens) (P28223 whole entry, looked up, one chain of several): as the sequence (P28223 whole entry) above

Compound	Ki [1]	Ki [2]	Selectivity ratio [5]	also measured
c1cc2c3c(c1)c1c(n3CCO2)CCNCC1	0.0041 µM	0.0043 µM		Intrinsic efficacy [3]: 105%
FC(F)(F)c1ccccc1-c1cccc2c1N1CCNCCC1C2 (single isomer, unassigned; (+)) [listing 1 of 2 here]	0.107 µM	0.059 µM		
C[C@H](N)Cn1ccc2ccc(F)cc21				Ki [4]: 0.004 µM
CCOc1ccccc1-c1cccc2c1N1CCNCCC1C2 (single isomer, unassigned; (+)) [listing 1 of 2 here]	0.458 µM	0.103 µM		
Cc1ccccc1-c1cccc2c1N1CCNCCC1C2 (stereo in doubt; (+)) [listing 1 of 2 here]	0.191 µM	0.03 µM		
CCOc1ccccc1-c1cc(Cl)cc2c1N1CCNCCC1C2 (single isomer, unassigned; (+)) [listing 1 of 2 here]	0.116 µM	0.032 µM		
Cc1ccccc1-c1cccc2c1N1CCNCCC1C2 (stereo in doubt; (-)) [listing 1 of 2 here]	0.136 µM	0.039 µM		
CCCN1CCc2cc3ccccc3n2CC1	0.056 µM	0.064 µM		
FC(F)(F)c1ccccc1-c1cccc2c1N1CCNCCC1C2 (single isomer, unassigned; (+)) [listing 2 of 2 here]			1.81	
Clc1c2n(c3ccccc13)CCNCC2	0.0065 µM	0.0047 µM	1.4	
NC(=O)C(=O)c1c2n(c3ccccc13)CCNCC2	0.316 µM	0.136 µM	2.3	
CCOc1ccccc1-c1cc(Cl)cc2c1N1CCNCCC1C2 (stereo in doubt; 22a)	0.218 µM	0.054 µM		
N#Cc1c2n(c3ccccc13)CCNCC2	0.083 µM	0.085 µM	1	
Fc1ccc(-c2cc(Cl)cc3c2N2CCNCCC2C3)cc1 (configuration not stated)	0.146 µM	0.31 µM	0.47	
Cc1ccccc1-c1cc(Cl)cc2c1N1CCNCCC1C2 (configuration not stated)	0.088 µM	0.043 µM	2.05	
c1ccc2c(c1)CC1CCNCCN21 (configuration not stated)	0.805 µM	0.721 µM		
Clc1ccc(Cl)c(-c2cc(Cl)cc3c2N2CCNCCC2C3)c1 (configuration not stated)	0.07 µM	0.16 µM	0.44	
Cn1c2c(c3ccccc31)CCNCC2 [PNU-22394]	0.019 µM	0.019 µM		Intrinsic efficacy [3]: 83%
Clc1ccccc1-c1cccc2c1N1CCNCCC1C2 (configuration not stated)	0.082 µM	0.023 µM	3.57	
CCN1CCc2cc3ccccc3n2CC1	0.03 µM	0.038 µM		Intrinsic efficacy [3]: 66%
CCOc1ccccc1-c1cccc2c1N1CCNCCC1C2 (stereo in doubt; 20a)	0.44 µM	0.11 µM		
CCOc1ccccc1-c1cccc2c1N1CCNCCC1C2 (single isomer, unassigned; (-)) [listing 1 of 2 here]	0.98 µM	0.196 µM		
Cc1ccccc1-c1cccc2c1N1CCNCCC1C2 (stereo in doubt; (-)) [listing 2 of 2 here]			3.45	
CCOc1ccccc1-c1cc(Cl)cc2c1N1CCNCCC1C2 (single isomer, unassigned; (+)) [listing 2 of 2 here]			3.63	

Compound	Ki [1]	Ki [2]	Selectivity ratio [5]	also measured
Clc1ccc(-c2cc(Cl)cc3c2N2CCNCCC2C3)c(Cl)c1 (configuration not stated)	0.426 µM	0.386 µM	1.1	
CCOc1ccccc1-c1cc(Cl)cc2c1N1CCNCCC1C2 (stereo in doubt) [listing 1 of 2 here]	0.354 µM	0.178 µM		
CCOc1ccccc1-c1cccc2c1N1CCNCCC1C2 (single isomer, unassigned; (+)) [listing 2 of 2 here]			4.45	
CCOc1ccccc1-c1cc(Cl)cc2c1N1CCNCCC1C2 (stereo in doubt) [listing 2 of 2 here]			1.99	
Cc1nnc2n1-c1ccc(Cl)cc1C(c1ccccc1)=NC2 [ALPRAZOLAM]				Latency [6]: 35.2 s; Latency [7]: 14.5 s; Latency [8]: 74.2 s; Latency [9]: 11.9 s
Clc1cc2c(c(-c3ccccc3Cl)c1)N1CCNCCC1C2 (configuration not stated)	0.102 µM	0.057 µM	1.79	
FC(F)(F)c1ccccc1-c1cccc2c1N1CCNCCC1C2 (single isomer, unassigned; (-)) [listing 1 of 2 here]			3.21	
CN1CCc2cc3ccccc3n2CC1	0.028 µM	0.013 µM		Intrinsic efficacy [3]: 49%
CCOc1ccccc1-c1ccc2c(c1)N1CCNCCC1C2 (configuration not stated)	1.58 µM	0.932 µM		
O=C(c1c2n(c3ccccc13)CCNCC2)C(F)(F)F	0.04 µM	0.054 µM	0.7	
FC(F)(F)c1ccccc1-c1cccc2c1N1CCNCCC1C2 (single isomer, unassigned; (-)) [listing 2 of 2 here]	0.045 µM	0.014 µM		
Cc1ccccc1-c1cccc2c1N1CCNCCC1C2 (stereo in doubt; (+)) [listing 2 of 2 here]			6.37	
c1ccc2c3c([nH]c2c1)CCNCC3	0.01 µM	0.0061 µM		Intrinsic efficacy [3]: 66%
CCOc1ccc(-c2cc(Cl)cc3c2N2CCNCCC2C3)cc1 (configuration not stated)	0.182 µM	0.265 µM	0.69	
Fc1ccccc1-c1cc(Cl)cc2c1N1CCNCCC1C2 (configuration not stated)	0.141 µM	0.223 µM	0.63	
CCOc1cccc(-c2cc(Cl)cc3c2N2CCNCCC2C3)c1 (configuration not stated)	0.233 µM	0.472 µM	0.49	
c1ccc2c(c1)cc1n2CCNCC1	0.018 µM	0.0048 µM	3.8	Latency [10]: 12.8 s; Latency [7]: 102 s; Latency [11]: 27 s; Latency [12]: 87.6 s; Intrinsic efficacy [3]: 80%
CCOc1ccccc1-c1ccc2c(c1)CC1CCNCCN21 (configuration not stated)	> 10 µM	4.81 µM		
O=Cc1c2n(c3ccccc13)CCNCC2	0.029 µM	0.012 µM	2.4	
CCOc1ccccc1-c1cccc2c1N1CCNCCC1C2 (single isomer, unassigned; (-)) [listing 2 of 2 here]			5	
Cc1c2n(c3ccccc13)CCNCC2	0.012 µM	0.0068 µM	1.8	
CCOc1ccccc1-c1cc(Cl)cc2cc3n(c12)CCNCC3	0.032 µM	0.112 µM		
COc1ccc(Cl)cc1-c1cc(Cl)cc2c1N1CCNCCC1C2 (configuration not stated)	0.756 µM	0.793 µM	0.95	
NC(=O)c1c2n(c3ccccc13)CCNCC2	0.046 µM	0.074 µM	0.6	
